Counter-ions that a name gives are not always drawn. Like-named read-outs stand apart in the source and are kept apart here.
Assays:
CGRP1 receptors = molecular target: T1, CGRP1 receptors (Cavia porcellus, UniProt H0UV86+Q8R4C6); experiment: CGRP receptor affinity on isolated, spontaneously beating guinea pig atrium
T1 sequence (H0UV86 23-464): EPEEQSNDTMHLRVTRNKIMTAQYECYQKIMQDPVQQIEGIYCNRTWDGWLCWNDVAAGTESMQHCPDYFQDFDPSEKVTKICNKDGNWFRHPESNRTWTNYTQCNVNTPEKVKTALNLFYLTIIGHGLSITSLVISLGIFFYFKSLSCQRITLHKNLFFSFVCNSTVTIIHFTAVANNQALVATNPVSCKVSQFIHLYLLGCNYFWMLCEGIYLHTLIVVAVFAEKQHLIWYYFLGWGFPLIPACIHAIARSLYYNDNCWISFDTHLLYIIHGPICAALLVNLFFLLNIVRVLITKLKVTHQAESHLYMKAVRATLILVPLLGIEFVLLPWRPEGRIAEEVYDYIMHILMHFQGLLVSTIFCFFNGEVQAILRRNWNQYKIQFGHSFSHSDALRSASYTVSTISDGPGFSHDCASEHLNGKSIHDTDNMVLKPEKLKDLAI
T1 sequence (Q8R4C6 27-148): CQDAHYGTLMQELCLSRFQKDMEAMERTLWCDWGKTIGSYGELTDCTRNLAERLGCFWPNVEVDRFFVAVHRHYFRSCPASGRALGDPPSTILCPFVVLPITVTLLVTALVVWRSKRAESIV
Method: J. Physiol. Pharmacol. 75: 671–6,1997. The corresponding literature description is hereby introduced as a reference and is deemed to be part of the disclosure.
The exposure time for each concentration level is 2 minutes.
The validation and investigation of the substituted cyclopentene compounds according to the invention for their antagonistic action proceeded in accordance with the above-described method.

[1] = molecular target: T2, recombinant human CGRP1 receptor (CRLR and RAMP1) (Homo sapiens, UniProt O60894+Q16602); experiment: Inhibition of binding of 3-[125I]-iodohistidyl10-α-CGRP to the human CGRP1 receptor (SPA); conditions: read-out: Inhibition in % of binding of 3-[125I]-iodohistidyl10 CGRP; at a concentration of 10 μM of the particular compound
T2 construct: purchased Euroscreen, Belgium ES420-M9; host or cells: CHO-K1 cell membranes
Method: (A) Investigation of the Inhibition of Binding of [^125I]-α-CGRP to the Human CGRP1 Receptor
Various CGRP receptor subtypes are known which in each case consist of a complex of CRLR (Calcitonin Receptor-Like Receptor), RAMP (Receptor-Associated Membrane Protein) and RCP (Receptor Component Protein).
Investigation of the inhibition of the binding of 3-[^125I]-iodohistidyl^10-α-CGRP is carried out on a human CGRP1 receptor, which is composed of the recombinant human constituents (Calcitonin Receptor-Like Receptor) CRLR and (Receptor-Associated Membrane Protein) RAMP1 (item no. ES420-M9, Euroscreen, Belgium).
The radioligand used is 3-[^125I]-iodohistidyl^10 Calcitonin Gene-Related Peptide (Amersham pharmacia biotech, code IM 184, 2000 Ci/mmol).
The binding studies are performed as SPA (scintillation proximity assay) batches with WGA beads (wheat germ agglutinin, Amersham pharmacia biotech, code: RPNQ 0001). The incubation buffer used is 50 mm tris pH 7.4 with 120 mM NaCl, 5 mM KCl and 5 mM MgCl2. 0.25 μg of protein of membrane suspension of CHO-K1 cells, 250 μg of beads and 10 μg of albumin (BSA) and the above-stated radioligand in a concentration of […] together with the compound according to the invention to be investigated in a concentration of 10 μM are introduced into each well of a microtitre plate.
After an incubation period of 90 minutes, radioactivity is measured in a Trilux detector (Wallac, Finland).
The inhibition of binding of 3-[^125I]-iodohistidyl^10 Calcitonin Gene-Related Peptide to the recombinant human CGRP1 receptor was determined in accordance with the method described above.

[2] = molecular target: T3, human calcitonin receptor-related receptor (CRLR) and human RAMP1 (Homo sapiens, UniProt O60894+Q16602); experiment: GTPγS assay: CGRP-induced [35S]GTPγS incorporation into CHO-K1 membranes; type: biochemical
T3 construct: purchased Euroscreen, Brussels, Belgium; host or cells: CHO-K1 cells (transfected), membranes
Method: The antagonistic action of the substituted cyclopentene compounds according to the invention was determined using this assay.
To this end, membranes from CHO-K1 cells (Euroscreen, Brussels, Belgium), which are transfected with the human calcitonin receptor-related receptor (CRLR, Genbank: U17473) and human receptor-associated modifying protein type 1 (RAMP1, Genbank AJ001014), are first of all rapidly thawed, diluted in 20 mM HEPES, 10 mM NaCl, 10 mM MgCl2, 1 mM EDTA pH 7.4 and resuspended by homogenisation. […] After 30 minutes' incubation at room temperature, 50 μl of 2 nM [35S]GTPγS (Amersham) are added and incubated for a further 30 minutes at room temperature and the assay-plate is centrifuged for 10 minutes at 3200 revolutions per minute. Bound activity was determined with a Wallac 1450 Microbeta Scintillation Counter (Wallac, Torku, Finland).
The inhibition of CGRP-induced incorporation of [^35S]GTPγS into membranes was determined in accordance with the above-described method.

[3] = molecular target: T4, endogenous CGRP receptors in SK-N-MC cells (Homo sapiens, UniProt O60894+Q16602); experiment: Action on the formation of cAMP in the human neuroblastoma cell line SK-N-MC; type: cell-based; conditions: at 1 nM CGRP, compounds used in 10 μM concentrations
T4 construct: host or cells: SK-N-MC human neuroblastoma cells
From the text: The corresponding description is hereby introduced as a reference and is deemed to be part of the disclosure.

[4] = read-out: IC50 value for CGRP-antagonistic action, isolated guinea pig atria stimulated by h-α-CGRP

T2 sequence (Q16602 23-461): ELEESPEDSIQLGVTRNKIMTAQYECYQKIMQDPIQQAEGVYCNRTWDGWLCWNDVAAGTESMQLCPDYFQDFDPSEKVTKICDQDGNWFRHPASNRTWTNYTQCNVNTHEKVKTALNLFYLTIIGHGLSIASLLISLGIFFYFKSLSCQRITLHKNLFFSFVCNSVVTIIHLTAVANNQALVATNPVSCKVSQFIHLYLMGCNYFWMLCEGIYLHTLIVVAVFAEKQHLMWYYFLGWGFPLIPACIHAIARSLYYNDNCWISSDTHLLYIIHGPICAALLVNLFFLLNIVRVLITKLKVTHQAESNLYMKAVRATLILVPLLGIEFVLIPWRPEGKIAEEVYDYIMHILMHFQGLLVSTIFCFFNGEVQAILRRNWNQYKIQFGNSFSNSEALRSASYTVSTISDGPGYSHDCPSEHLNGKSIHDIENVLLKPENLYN
T2 sequence (O60894 27-148 partner): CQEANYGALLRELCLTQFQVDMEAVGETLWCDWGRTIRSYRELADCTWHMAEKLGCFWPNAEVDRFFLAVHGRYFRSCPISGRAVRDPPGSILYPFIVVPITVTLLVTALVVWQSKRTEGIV
T3 sequence (Q16602 23-461): as the sequence (Q16602 23-461) above
T3 sequence (O60894 27-148 partner): as the sequence (O60894 27-148 partner) above
T4 sequence (Q16602 23-461): as the sequence (Q16602 23-461) above
T4 sequence (O60894 27-148 partner): as the sequence (O60894 27-148 partner) above

CN(C)CC1CC(c2ccc(S(C)(=O)=O)cc2)=C(c2ccc(O)cc2)C1=O.Cl (stereo not drawn)
melting point: 98 to 100 °C

h-α-CGRP(8-37): human α-CGRP(8-37), CGRP1-antagonistic fragment used to validate the guinea pig atrium model [reference compound]
Reduction in the increase in the frequency of beating of the atria stimulated by h-α-CGRP (in words) (CGRP1 receptors; concentrations of 30, 100 and 300 nM): concentration-dependent reduction | IC50 (CGRP1 receptors; validation experiment, isolated guinea pig atria, read-out: IC50 (semimaximal action), reduction of h-α-CGRP-stimulated increase in frequency of beating): 0.019 µM

CN(C)CC1CC(c2ccc(S(C)(=O)=O)cc2)=C(c2ccc(C(C)(C)C)cc2)C1O (stereo not drawn) [Example 21, 2-(4-tert-Butylphenyl)-5-dimethylaminomethyl-3-(4-methanesulfonylphenyl)-cyclopent-2-enol, hydrochloride]
inhibition at 10 µM [1]: 26%

CCOc1cccc(C2=C(c3ccc(S(C)(=O)=O)cc3)CC(CN(C)C)C2=O)c1.Cl (stereo not drawn)
melting point: 149 to 151 °C

CN(C)CC1CC(c2ccc(S(C)(=O)=O)cc2)=C(c2cccc(O)c2)C1=O.Cl (stereo not drawn) [Example 3, 5-Dimethylaminomethyl-2-(3-hydroxyphenyl)-3-(4-methanesulfonylphenyl)-cyclopent-2-enone, hydrochloride]
melting point: 162 to 164 °C | IC50 (CGRP1 receptors; [4]): 77 µM | inhibition at 12.5 µM [2]: 65.1% | inhibition at 10 µM [1]: 66% | Inhibition of cAMP formation [3]: 86%

COc1cccc(C2=C(c3ccc(S(C)(=O)=O)cc3)CC(CN(C)C)C2=O)c1.Cl (stereo not drawn) [Example 13, 5-Dimethylaminomethyl-3-(4-methanesulfonylphenyl)-2-(3-methoxyphenyl)-cyclopent-2-enone, hydrochloride]
melting point: 154 to 157 °C | IC50 (CGRP1 receptors; [4]): 32 µM | inhibition at 12.5 µM [2]: 63.9% | inhibition at 10 µM [1]: 60% | Inhibition of cAMP formation [3]: 88%

CN(C)CC1CC(c2ccc(S(C)(=O)=O)cc2)=C(c2cccc(Cl)c2)C1=O.Cl (stereo not drawn)
melting point: 156 to 158 °C

CN(C)CC1CC(c2ccc(S(C)(=O)=O)cc2)=C(c2cc(F)cc(F)c2)C1=O.Cl (stereo not drawn) [Example 1, 2-(3,5-Difluorophenyl)-5-dimethylaminomethyl-3-(4-methanesulfonylphenyl)-cyclopent-2-enone, hydrochloride]
IC50 (CGRP1 receptors; [4]): 13 µM | inhibition at 12.5 µM [2]: 65.1% | inhibition at 10 µM [1]: 40% | Inhibition of cAMP formation [3]: 71%

Cc1ccc(C2=C(c3ccc(S(C)(=O)=O)cc3)CC(CN(C)C)C2=O)cc1C.Cl (stereo not drawn)
melting point: 139 to 142 °C

Cc1cc(C2=C(c3ccc(S(C)(=O)=O)cc3)CC(CN(C)C)C2=O)ccc1F.Cl (stereo not drawn)
melting point: 95 to 98 °C (dec.)

CN(C)CC1CC(c2ccc(S(C)(=O)=O)cc2)=C(c2ccc(S(C)(=O)=O)cc2)C1=O.Cl (stereo not drawn)
melting point: 157 to 159 °C

CN(C)CC1CC(c2ccc(S(C)(=O)=O)cc2)=C(c2cccc(C(F)(F)F)c2)C1=O.Cl (stereo not drawn)
melting point: 152 to 154 °C

CN(C)CC1CC(c2ccc(S(C)(=O)=O)cc2)=C(c2cccc(F)c2)C1=O.Cl (stereo not drawn) [Example 5, 5-Dimethylaminomethyl-2-(3-fluorophenyl)-3-(4-methanesulfonylphenyl)-cyclopent-2-enone, hydrochloride]
melting point: 154 to 158 °C | IC50 (CGRP1 receptors; [4]): 25 µM | inhibition at 12.5 µM [2]: 62.4% | inhibition at 10 µM [1]: 58% | Inhibition of cAMP formation [3]: 82%

Cc1cccc(C2=C(c3ccc(S(C)(=O)=O)cc3)CC(CN(C)C)C2=O)c1.Cl (stereo not drawn)
melting point: 148 to 150 °C

CN(C)CC1CC(c2ccc(S(C)(=O)=O)cc2)=C(c2ccc(C(C)(C)C)cc2)C1=O.Cl (stereo not drawn)
melting point: 182 to 184 °C

CC(C)c1cccc(C2=C(c3ccc(S(C)(=O)=O)cc3)CC(CN(C)C)C2=O)c1.Cl (stereo not drawn)
melting point: 131 to 133 °C

CN(C)CC1CC(c2ccc(S(C)(=O)=O)cc2)=C(c2ccc3ccccc3c2)C1=O.Cl (stereo not drawn)
melting point: 163 to 165 °C

CN(C)CC1CC(c2ccc(S(C)(=O)=O)cc2)=C(c2cc(Cl)cc(Cl)c2)C1=O.Cl (stereo not drawn)
melting point: 160 to 163 °C

Cc1ccc(C2=C(c3ccc(S(C)(=O)=O)cc3)CC(CN(C)C)C2=O)cc1.Cl (stereo not drawn)
melting point: 127 to 129 °C

CN(C)CC1CC(c2ccc(S(C)(=O)=O)cc2)=C(c2ccc3c(c2)OCO3)C1=O.Cl (stereo not drawn)
melting point: 149 to 152 °C
